Experimental data taken from US20250163119A1, “COMPOUNDS FOR THE TREATMENT OF DIABETES OR OBESITY” (Eli Lilly and Company, priority 2023, published 2025).
*1 amine or outer side, *2 acyl side, *3 side chain or, on linkers, in order; H or OH if unused. Where a SMILES comes first, the peptide text is derived from it. Side-chain parts run from the residue outwards. [ ]: non-standard residue; d: D form. The star is where a group is joined. C20 diacid = O=C(O)CCCCCCCCCCCCCCCCCCC(=O)*; C18 diacid = O=C(O)CCCCCCCCCCCCCCCCC(=O)*; γGlu = O=C(O)[C@H](CCC(=O)[*:2])N[*:1]; εLys = N[C@@H](CCCCN[*:1])C(=O)[*:2]; αMeL = CC(C)C[C@](C)(N)C(=O)O; AEEA = NCCOCCOCC(=O)O; Aib = CC(C)(N)C(=O)O; Ahx = NCCCCCC(=O)O; βAla = NCCC(=O)O

Tests used:
[1] = target: T1, human CRHR2 (Homo sapiens, UniProt Q13324); assay: Human CRHR2 cAMP assay (HTRF) in HEK293 cells stably expressing human CRHR2; format: cell-based; conditions: HEK293 cells overexpressing human CRHR2; relative EC50, maximum 10 nM human UCN2; mean ± SE; read-out: hCRHR2 cAMP EC50 (pM, ± SE)
T1 construct: expressed in transfected cells
T1 sequence (Q13324 1-438 isoform Q13324-2): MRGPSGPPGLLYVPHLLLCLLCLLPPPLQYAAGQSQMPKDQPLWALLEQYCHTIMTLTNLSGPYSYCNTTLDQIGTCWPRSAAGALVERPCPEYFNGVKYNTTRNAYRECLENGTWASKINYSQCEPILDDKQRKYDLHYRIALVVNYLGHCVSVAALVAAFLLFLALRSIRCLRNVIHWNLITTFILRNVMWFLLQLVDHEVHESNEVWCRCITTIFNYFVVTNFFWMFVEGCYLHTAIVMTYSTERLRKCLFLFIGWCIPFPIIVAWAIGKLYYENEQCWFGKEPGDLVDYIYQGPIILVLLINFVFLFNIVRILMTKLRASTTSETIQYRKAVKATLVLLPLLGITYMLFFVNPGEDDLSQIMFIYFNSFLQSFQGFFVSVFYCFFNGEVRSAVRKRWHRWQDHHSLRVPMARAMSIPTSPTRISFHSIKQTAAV
Procedure, shortened: (§1)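 Frozen stable HEK293-CRHR1 or -CRHR2 cells are thawed into IBMX-containing (0.25 mM) casein/HEPES pH 7.4 MEM buffer. Peptide dilution series (1:3) are added, then CRHR1 cells sit 1 h at 37° C and CRHR2 cells 30 min at room temperature. Intracellular cAMP is then measured by HTRF.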

[2] = target: T2, human CRHR1 (Homo sapiens, UniProt P34998); assay: Human CRHR1 cAMP assay (HTRF) in HEK293 cells stably expressing human CRHR1; format: cell-based; conditions: HEK293 cells overexpressing human CRHR1; relative EC50, maximum 66 nM human UCN1; mean ± SE; read-out: hCRHR1 cAMP EC50 (pM, ± SE)
T2 construct: expressed in transfected cells
T2 sequence (P34998 24-415): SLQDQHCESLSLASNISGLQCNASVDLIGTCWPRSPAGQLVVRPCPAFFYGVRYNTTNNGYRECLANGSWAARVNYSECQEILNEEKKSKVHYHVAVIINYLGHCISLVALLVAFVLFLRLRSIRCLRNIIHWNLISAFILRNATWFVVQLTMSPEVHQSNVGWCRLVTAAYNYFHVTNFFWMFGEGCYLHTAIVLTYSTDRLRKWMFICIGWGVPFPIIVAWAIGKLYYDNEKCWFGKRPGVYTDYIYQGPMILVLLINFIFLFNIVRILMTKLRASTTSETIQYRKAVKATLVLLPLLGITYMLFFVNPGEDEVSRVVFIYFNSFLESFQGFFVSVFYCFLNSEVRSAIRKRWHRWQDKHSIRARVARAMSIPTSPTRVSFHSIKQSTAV
Procedure, shortened: as §1

Row | Molecule | EC50 [1] | EC50 [2]
1 | Ac-GSPSIVTS[αMeL]DVPT[Aib][αMeL]LQKILEQERAEKARQQAK([AEEA-Pro-Lys-Glu-γGlu-C20 diacid])EAAEILAQV-NH2 [SEQ ID NO: 3, Ac-GSPSIVTS αMeL DVPT Aib αMeL LQKILEQERAEKARQQAK((2-[2-(2-Amino-ethoxy)-ethoxy]-acetyl)-PKE-γE-CO-(CH2)18-CO2H)EAAEILAQV-NH2] | 18.3 ± 2.1 pM | > 1e+07 pM
2 | Ac-GSPSIVTS[αMeL]DVPT[Aib][αMeL]LQKILEQERAEKARQQAK([Ahx-AEEA-γGlu-C20 diacid])EAAEILAQV-NH2 [SEQ ID NO: 4, Ac-GSPSIVTS αMeL DVPT Aib αMeL LQKILEQERAEKARQQAK(Ahx-(2-[2-(2-Amino-ethoxy)-ethoxy]-acetyl)-γE-CO-(CH2)18-CO2H)EAAEILAQV-NH2] | 20.3 ± 2.9 pM | > 1e+07 pM
3 | Ac-GSPSIVTS[αMeL]DVPT[Aib][αMeL]LQKILEQERAEKARQQAK([Gly-βAla-βAla-βAla-βAla-γGlu-C20 diacid])EAAEILAQV-NH2 [SEQ ID NO: 8, Ac-GSPSIVTS αMeL DVPT Aib αMeL LQKILEQERAEKARQQAK(G-(βA)4-γE-CO-(CH2)18-CO2H)EAAEILAQV-NH2] | 11 ± 0.9 pM | > 1e+07 pM
4 | Ac-GSPSIVTS[αMeL]DVPT[Aib][αMeL]LQKILEQERAEKARQQAK([Gly-βAla-βAla-βAla-γGlu-C20 diacid])EAAEILAQV-NH2 [SEQ ID NO: 7, Ac-GSPSIVTS αMeL DVPT Aib αMeL LQKILEQERAEKARQQAK(G-(βA)3-γE-CO-(CH2)18-CO2H)EAAEILAQV-NH2] | 10.6 ± 1.4 pM | > 1e+07 pM
5 | Ac-GSPSIVTS[αMeL]DVPT[Aib][αMeL]LQKILEQERAEKARQQAK([βAla-Ser-βAla-Ser-γGlu-C20 diacid])EAAEILAQV-NH2 [SEQ ID NO: 10, Ac-GSPSIVTS αMeL DVPT Aib αMeL LQKILEQERAEKARQQAK((βA)-S-(βA)-S-γE-CO-(CH2)18-CO2H)EAAEILAQV-NH2] | 10.1 ± 1.1 pM | > 1e+07 pM
6 | Ac-GSPSIVTS[αMeL]DVPT[Aib][αMeL]LQKILEQERAEKARQQAK([γGlu-AEEA-AEEA-εLys-C20 diacid])EAAEILAQV-NH2 [SEQ ID NO: 17, Ac-GSPSIVTS αMeL DVPT Aib αMeL LQKILEQERAEKARQQAK(γE-(2-[2-(2-Amino-ethoxy)-ethoxy]-acetyl)2-ϵK-CO-(CH2)18-CO2H)EAAEILAQV-NH2] | 9.5 ± 0.9 pM | > 1e+07 pM
7 | Ac-GSPSIVTS[αMeL]DVPT[Aib][αMeL]LQKILEQERAEKARQQAK([γGlu-AEEA-Ahx-C20 diacid])EAAEILAQV-NH2 [SEQ ID NO: 5, Ac-GSPSIVTS αMeL DVPT Aib αMeL LQKILEQERAEKARQQAK(γE-(2-[2-(2-Amino-ethoxy)-ethoxy]-acetyl)-Ahx-CO-(CH2)18-CO2H)EAAEILAQV-NH2] | 10.7 ± 0.8 pM | > 1e+07 pM
8 | Ac-GSPSIVTS[αMeL]DVPT[Aib][αMeL]LQKILEQERAEKARQQAK([γGlu-AEEA-εLys-C18 diacid])EAAEILAQV-NH2 [SEQ ID NO: 21, Ac-GSPSIVTS αMeL DVPT Aib αMeL LQKILEQERAEKARQQAK(γE-(2-[2-(2-Amino-ethoxy)-ethoxy]-acetyl)-ϵK-CO-(CH2)16-CO2H)EAAEILAQV-NH2] | 16.3 ± 1.3 pM | > 1e+07 pM
9 | Ac-GSPSIVTS[αMeL]DVPT[Aib][αMeL]LQKILEQERAEKARQQAK([γGlu-εLys-AEEA-εLys-C20 diacid])EAAEILAQV-NH2 [SEQ ID NO: 19, Ac-GSPSIVTS αMeL DVPT Aib αMeL LQKILEQERAEKARQQAK(γE-EK-(2-[2-(2-Amino-ethoxy)-ethoxy]-acetyl)-ϵK-CO-(CH2)18-CO2H)EAAEILAQV-NH2] | 11.1 ± 0.5 pM | > 1e+07 pM
10 | Ac-GSPSIVTS[αMeL]DVPT[Aib][αMeL]LQKILEQERAEKARQQAK([γGlu-εLys-γGlu-εLys-C20 diacid])EAAEILAQV-NH2 [SEQ ID NO: 18, Ac-GSPSIVTS αMeL DVPT Aib αMeL LQKILEQERAEKARQQAK(γE-ϵK-γE-ϵK-CO-(CH2)18-CO2H)EAAEILAQV-NH2] | 10.9 ± 1.3 pM | > 1e+07 pM

Stronger by EC50 [1], values ahead:

Row | EC50 [1] | EC50 [2] | Molecule
11 | 7.9 ± 1.3 pM | > 1e+07 pM | CC[C@H](C)[C@H](NC(C)=O)C(=O)N[C@H](C(=O)N[C@H](C(=O)N[C@@H](CO)C(=O)N[C@@](C)(CC(C)C)C(=O)N[C@@H](CC(=O)O)C(=O)N[C@@H](C(=O)N1CCC[C@H]1C(=O)N[C@H](C(=O)NCC(=O)N[C@@](C)(CC(C)C)C(=O)N[C@@H](CC(C)C)C(=O)N[C@@H](CCC(N)=O)C(=O)N[C@H](C(=O)N[C@@H](CCCCN)C(=O)N[C@@H](CC(C)C)C(=O)N[C@@H](CCC(=O)O)C(=O)N[C@@H](CCC(N)=O)C(=O)N[C@@H](CCC(=O)O)C(=O)N[C@@H](CCCNC(=N)N)C(=O)N[C@@H](C)C(=O)N[C@@H](CCC(=O)O)C(=O)N[C@@H](CCCCN)C(=O)N[C@@H](C)C(=O)N[C@@H](CCCNC(=N)N)C(=O)N[C@@H](CCC(N)=O)C(=O)N[C@@H](CCC(N)=O)C(=O)N[C@@H](C)C(=O)N[C@@H](CCCCNC(=O)CNC(=O)[C@H](CCCCN)NC(=O)[C@H](CCC(=O)O)NC(=O)[C@H](CCCCN)NC(=O)[C@H](CCC(=O)O)NC(=O)[C@H](CCCCN)NC(=O)[C@H](CCC(=O)O)NC(=O)CC[C@H](NC(=O)CCCCCCCCCCCCCCCCCCC(=O)O)C(=O)O)C(=O)N[C@@H](CCC(=O)O)C(=O)N[C@@H](CC(N)=O)C(=O)N[C@H](C(=O)N[C@@H](CCC(=O)O)C(=O)N[C@H](C(=O)N[C@@H](CC(C)C)C(=O)N[C@@H](C)C(=O)N[C@@H](CCC(N)=O)C(=O)N[C@H](C(N)=O)C(C)C)[C@@H](C)CC)[C@@H](C)O)[C@@H](C)CC)[C@@H](C)O)C(C)C)[C@@H](C)O)C(C)C [SEQ ID NO: 43, Ac-IVTS αMeL D (D-Val) PTG αMeL LQIKLEQERAEKARQQAK(GKEKEKE-γE-CO-(CH2)18-CO2H)ENTEILAQV-NH2]
12 | 5.4 ± 0.5 pM | > 1e+07 pM | CC[C@H](C)[C@H](NC(C)=O)C(=O)N[C@H](C(=O)N[C@H](C(=O)N[C@@H](CO)C(=O)N[C@@](C)(CC(C)C)C(=O)N[C@@H](CC(=O)O)C(=O)N[C@@H](C(=O)N1CCC[C@H]1C(=O)N[C@H](C(=O)NCC(=O)N[C@@](C)(CC(C)C)C(=O)N[C@@H](CC(C)C)C(=O)N[C@@H](CCC(N)=O)C(=O)N[C@H](C(=O)N[C@@H](CCCCN)C(=O)N[C@@H](CC(C)C)C(=O)N[C@@H](CCC(=O)O)C(=O)N[C@@H](CCC(N)=O)C(=O)N[C@@H](CCC(=O)O)C(=O)N[C@@H](CCCNC(=N)N)C(=O)N[C@@H](C)C(=O)N[C@@H](CCC(=O)O)C(=O)N[C@@H](CCCCN)C(=O)N[C@@H](C)C(=O)N[C@@H](CCCNC(=N)N)C(=O)N[C@@H](CCC(N)=O)C(=O)N[C@@H](CCC(N)=O)C(=O)N[C@@H](C)C(=O)N[C@@H](CCCCNC(=O)COCCOCCNC(=O)CC[C@H](NC(=O)CC[C@H](NC(=O)CCCCCCCCCCCCCCCCCCC(=O)O)C(=O)O)C(=O)O)C(=O)N[C@@H](CCC(=O)O)C(=O)N[C@@H](CC(N)=O)C(=O)N[C@H](C(=O)N[C@@H](CCC(=O)O)C(=O)N[C@H](C(=O)N[C@@H](CC(C)C)C(=O)N[C@@H](C)C(=O)N[C@@H](CCC(N)=O)C(=O)N[C@H](C(N)=O)C(C)C)[C@@H](C)CC)[C@@H](C)O)[C@@H](C)CC)[C@@H](C)O)C(C)C)[C@@H](C)O)C(C)C [SEQ ID NO: 44, Ac-IVTS αMeL D (D-Val) PTG αMeL LQIKLEQERAEKARQQAK((2-[2-(2-Amino-ethoxy)-ethoxy]-acetyl)-(γE)2-CO-(CH2)18-CO2H)ENTEILAQV-NH2] (Ac-IVTS[αMeL]D[dV]PTG[αMeL]LQIKLEQERAEKARQQAK([AEEA-γGlu-γGlu-C20 diacid])ENTEILAQV-NH2)
13 | 8.3 ± 1.4 pM | > 1e+07 pM | Ac-GSPSIVTS[αMeL]DVPT[Aib][αMeL]LQKILEQERAEKARQQAK([γGlu-Pro-Lys-Glu-Ahx-C20 diacid])EAAEILAQV-NH2 [SEQ ID NO: 11, Ac-GSPSIVTS αMeL DVPT Aib αMeL LQKILEQERAEKARQQAK(γE-PKE-Ahx-CO-(CH2)18-CO2H)EAAEILAQV-NH2]
14 | 7.9 ± 0.3 pM | > 1e+07 pM | Ac-GSPSIVTS[αMeL]DVPT[Aib][αMeL]LQKILEQERAEKARQQAK([γGlu-Pro-Lys-Glu-εLys-C20 diacid])EAAEILAQV-NH2 [SEQ ID NO: 13, Ac-GSPSIVTS αMeL DVPT Aib αMeL LQKILEQERAEKARQQAK(γE-PKE-ϵK-CO-(CH2)18-CO2H)EAAEILAQV-NH2]
15 | 8.3 ± 0.5 pM | > 1e+07 pM | Ac-GSPSIVTS[αMeL]DVPT[Aib][αMeL]LQKILEQERAEKARQQAK([γGlu-Pro-Pro-Pro-εLys-C20 diacid])EAAEILAQV-NH2 [SEQ ID NO: 14, Ac-GSPSIVTS αMeL DVPT Aib αMeL LQKILEQERAEKARQQAK(γE-PPP-EK-CO-(CH2)18-CO2H)EAAEILAQV-NH2]
